One experiment concerns the target T1, VEGFR3 (Homo sapiens, UniProt P35916).
T1 construct: host or cells: HMVEC-dLyAD
Nature of the experiment: VEGFR3 Phospho ELISA assay in HMVEC-dLyAD cells, VEGFC stimulated. The note with it: 1 hour compound, 250 ng/mL VEGFC 10 minutes. Type of experiment: cell-based. As for the experimental part:
Adult human dermal lymphatic microvascular endothelial cells (HMVEC-dLyAD) (Cat#CC-2810, Lonza) were seeded into clear-bottom, TC treated 12 well plates (Cat #665180, Greiner Bio-One) in EGM-2MV (Cat#CC-3202, Lonza) at 180,000 cells/well (volume 1 mL), and the plates incubated at 37° C. and 5% CO2 for 6 hours. The media was replaced with EBM-2 (Cat #CC-3156, Lonza)+0.1% BSA (Cat#A8412, Sigma) and cells incubated for a further period (overnight at 37° C. and 5% CO2).
96 well Maxisorp immuno plates (Cat #439454, Nunc) were coated with 100 μL of Total VEGFR3 capture antibody (Part #841888, Human Total VEGFR3/FLT4 ELISA Kit, Cat #DYC3491, R&D Systems), or Phospho VEGFR3 Capture antibody (Part #841885, Human Phospho VEGFR3/FLT4 ELISA Kit, Cat#DYC2724, R&D Systems). The plates were covered and incubated at room temperature overnight.
The coating antibody was flicked out and the plates washed three times with Wash Buffer (Phosphate buffered saline (137 mM NaCl, […], […], […], pH 7.2-7.4), 0.05% Tween 20). 300 μL of blocking buffer (5% v/v Tween 20, 5% w/v sucrose in PBS) was then added to wells and plate incubated for 2 hours at room temperature. Blocking solution is flicked out and plates washed three times and tapped dry.
Compound dilution series were prepared in EBM-2 (Cat #CC-3156, Lonza)+0.1% BSA (Cat#A8412, Sigma) with constant 0.1% DMSO concentration. 439 μL of sample or vehicle control was added to the cell monolayers. Cells are treated for 1 hour at 37° C. and 5% CO2. 250 ng/mL Recombinant human VEGFC (Cat #2179-VC, R & D Systems) added to wells and plates incubated for an additional 10 minutes at 37° C. and 5% CO2.
The media and compounds were removed and the cell monolayer washed once in Dulbecco's Phosphate Buffered Saline (Cat #21600-044, Invitrogen). 130 μL of Lysis buffer added to wells and cell lysate harvested and transferred to tubes and stored on ice. Complete lysis buffer was prepared by adding 10 μL Protease Inhibitor Cocktail (Cat #P8340, Sigma-Aldrich), 10 μL PMSF (Phenylmethanesulfonyl fluoride, Cat #P7626, Sigma-Aldrich, prepared as 500 mM DMSO stock) per 1 mL of Phosphosafe™ Extraction Reagent (Cat #71296, Merck).
The harvested samples were then diluted 1:2 in IC Diluent #18 (5% Tween 20/PBS) and 100 μL transferred to the Total and Phospho VEGFR3 coated, blocked and washed 96 well plates and incubated for 2 hours at room temperature. The plates were then washed three times in wash buffer as described above and tapped dry.
For detection of Total VEGFR3100 μL of Detection antibody (Total VEGFR3 Detection Antibody Part#841888 in Total VEGFR3 kit) diluted in IC Diluent #1 (1% w/v BSA (Cat #A7906, Sigma-Aldrich)/PBS) was added to wells and the plate incubated for 2 hours at room temperature. The plate was then washed three times in wash buffer and tapped dry. 100 μL of streptavidin-HPR diluted in IC diluent #1 Streptavidin-HRP, Part #890803 in Total VEGFR3 kit) was added to wells and incubated at room temperature for 20 minutes followed by washing as described above 100 μL Substrate solution (3,3′,5,5′-Tetramethylbenzidine (TMB) Liquid Substrate System for ELISA, Cat #T0440, Sigma-Aldrich) was added and the plate incubated for 20 minutes in the dark at room temperature followed by the addition of 50 μL stop solution (2 M H2SO4).
Total VEGFR3 levels were quantified using a Multiskan Ascent plate reader and Ascent software fitted with 450 nm filter.
For detection of Phospho VEGFR3, 100 μL of Detection antibody (Anti-Phospho-Tyrosine-HRP Detection Antibody, Part #841403 in Phospho VEGFR3 kit) was diluted in IC Diluent #1 (1% w/v BSA/PBS), added to the wells and the plate incubated for 2 hours at room temperature. The plate was then washed three times in wash buffer as described above and tapped dry. […]
A general note: An ELISA detects its analyte on a solid surface through an enzyme-linked reagent.

The target in experiment [1] is T2, VEGFR3 cytoplasmic domain (Homo sapiens, UniProt P35916).
T2 construct: VEGFR3 cytoplasmic domain (amino acids 798-1298) was purchased as N-terminal GST-fusion protein; GST (N); purchased
T2 sequence (P35916 798-1298 isoform P35916-1): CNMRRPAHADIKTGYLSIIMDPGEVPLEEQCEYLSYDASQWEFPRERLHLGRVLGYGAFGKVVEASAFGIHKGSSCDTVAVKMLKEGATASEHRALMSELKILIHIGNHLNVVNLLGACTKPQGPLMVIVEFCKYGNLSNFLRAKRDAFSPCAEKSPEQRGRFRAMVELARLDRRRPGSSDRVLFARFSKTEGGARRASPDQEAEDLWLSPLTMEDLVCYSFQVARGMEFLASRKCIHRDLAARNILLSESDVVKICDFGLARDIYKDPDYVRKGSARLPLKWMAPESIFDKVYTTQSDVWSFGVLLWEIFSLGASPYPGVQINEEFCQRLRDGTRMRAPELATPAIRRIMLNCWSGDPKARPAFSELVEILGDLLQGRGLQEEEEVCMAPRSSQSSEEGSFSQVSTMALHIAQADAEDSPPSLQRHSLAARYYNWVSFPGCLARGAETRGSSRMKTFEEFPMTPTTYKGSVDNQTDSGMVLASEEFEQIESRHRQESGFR
Nature of the experiment: VEGFR3 biochemical assay (AlphaScreen). The note with it: GST-VEGFR3 cytoplasmic domain, 500 μM ATP (modified form: His-fusion, 1 μM ATP). How it is done: Compounds of the invention may be tested for in vitro activity in the following assay: A biotin labelled peptide is used as substrate (amino acid sequence: Biotin-[…]NH2). VEGFR3 cytoplasmic domain (amino acids 798-1298) was purchased as N-terminal GST-fusion protein (“the enzyme”). The 15 μL assay reactions are run in Greiner brand white 384-well low volume plates. All reactions contained 10 mM HEPES pH 7.4, 10 mM MgCl2, 0.01% (v/v) Tween-20, 50 μM Na3VO4, 0.01% (w/v) albumin from chicken egg white, 1 mM Dithiothreitol, 111 nM peptide substrate, 500 μM ATP, and 3.8 ng/reaction enzyme, with the enzyme being omitted from negative control reactions. Compounds were added in a volume of […] from dilution series prepared in DMSO, positive and negative control reactions receiving the same volume DMSO without compound. The plates were sealed with adhesive seals and incubated for 90 minutes at 30 degree Celsius. The reactions were stopped with the detection reagents added at the same time as follows: Product formation was quantified as amplified luminescence between PerkinElmer AlphaScreen™ beads, using Streptavidin-coated donor and anti-phosphotyrosine (P-Tyr-100) acceptor beads. To each reaction, 5 μL containing 10 mM HEPES pH 7.4, 25 mM NaCl, 100 mM EDTA, 0.01% (v/v) Tween-20, and 6.25 μg/mL of each bead type were added. Plates were incubated for 6 hours before being read on a PerkinElmer EnVision™ plate reader in HTS Alphascreen™ mode. IC50 values were obtained by calculating percent inhibition (% I) for each reaction relative to controls on the same plate (% I=(I-CN)/(CP-CN) where CN/CP are the averages of the negative/positive reactions, respectively), then fitting the % I data vs. compound concentration [I] to % I=(A+((B−A)/(1+((C/[I])̂D)))) where A is the lower asymptote, B is the upper asymptote, C is the IC50 value, and D is the slope factor.
The above assay was also run in a modified form in some cases (indicated below with *). In these cases, VEGFR3 cytoplasmic domain (amino acids 818-1177, lacking 949-1002 of UniProt accession number P35916) was expressed and purified as N-terminal Hexa-His-fusion protein (“the enzyme”), rather than using the N-terminal GST-fusion protein. The assay conditions were the same as above but with 1 μM ATP and 8 ng/reaction of the enzyme.

A further experiment concerns the target T3, P397Y-FAK (Homo sapiens, UniProt Q05397).
T3 construct: endogenous in cells; host or cells: MDA-231-LNA
Nature of the experiment: P397Y-FAK inhibition MSD platform cellular biomarker assay. The experiment is classed as cell-based. The note with it: MDA-231-LNA cells, 1 hour compound. As for the experimental part: 96-well plates (cat#MA6000, Meso Scale Discovery) are coated with 30 μL/well of mouse monoclonal FAK antibody [63D5] (cat#ab72140, Abcam) pre-diluted in PBS to a concentration of 1 mg/mL. The plates are sealed with adhesive film and incubated for 16 hours at 4° C. The antibody is then flicked out of the plates and 150 μL of 3% [w/v] Blocker A (cat#R93AA-1, Meso Scale Discovery) is added. The plates are resealed with adhesive film and incubated at room temperature on a shaker set at medium speed for 2 hours. The plates are then washed three times with a solution containing 50 mM Tris-HCl pH 7.5, 0.15 M NaCl and 0.02% Tween-20, before cell lysate addition described below.
Cells are split 1:2 into T150 cell culture flasks 2 days prior to compound treatment. On the day prior to compound treatment, 200 μL media containing 20,000 cells is seeded into all wells of white, clear-bottom, TC treated, pclear, 96-well microtitre plates (cat#655098, Greiner Bio-One), and the plates are incubated at 37° C. and 5% CO2 for […]. 1 pUwell of compound is then added from dilution series prepared in DMSO. Negative control wells receive the same volume of DMSO without compounds, and positive control wells receive 2 μM of a control compound in the same volume of DMSO. Cells are treated for 1 hour at 37° C. and 5% CO2. The media/compounds are then flicked off and 55 pUwell of ice-cold complete lysis buffer is added. Complete lysis buffer is prepared by adding 1 tablet PhosSTOP complete phosphatase inhibitor (cat#04906837001, Roche) and 1 tablet Complete, Mini, EDTA-free, protease inhibitor (cat#04693159001, Roche) per 10 mL of incomplete lysis buffer (150 mM NaCl, 20 mM Tris-HCl pH 7.5, 1 mM EDTA, 1 mM EGTA, 1% Triton-X 100). Plates are incubated on ice for 30 minutes, with 30 seconds high speed plate shaking every 5 minutes. 40 μL/well of cell lysate is transferred to the coated, blocked and washed 96-well microtitre plates described above. The 96-well plates are sealed with adhesive film and incubated for 16 hours at 4° C. The plates are then washed three times with a solution containing 50 mM Tris-HCl pH 7.5, 0.15 M NaCl and 0.02% Tween-20 and tapped dry. 25 μL/well of detection solution (1% [w/v] Blocker A (cat#R93AA-1, Meso Scale Discovery) in 50 mM Tris-HCl pH 7.5, 0.15 M NaCl and 0.02% Tween-20, with 1:600 rabbit polyclonal FAK phospho Y397 antibody (cat#ab39967, Abcam), 1:1000 anti-rabbit sulfo-tag antibody (cat#R32AB-1 Meso Scale Discovery) and 1:40 reconstituted Blocker D-M (cat#D609-0100, Rockland Immunochemicals for Research)) is added, and the plates resealed with adhesive film and incubated for 1 hour at room temperature on a plate shaker set to medium speed. Plates are then washed three times with a solution containing 50 mM Tris-HCl pH 7.5, 0.15 M NaCl and 0.02% Tween-20 and tapped dry. 150 μL/well of Read Buffer T+Surfactant (cat#R92TC-1, Meso Scale Discovery) is then added, and pFAK-397 levels quantified using a Meso Scale Discovery SECTOR Imager 6000 instrument.

T3 sequence (Q05397 2-1052 limits assumed, stated change not applied): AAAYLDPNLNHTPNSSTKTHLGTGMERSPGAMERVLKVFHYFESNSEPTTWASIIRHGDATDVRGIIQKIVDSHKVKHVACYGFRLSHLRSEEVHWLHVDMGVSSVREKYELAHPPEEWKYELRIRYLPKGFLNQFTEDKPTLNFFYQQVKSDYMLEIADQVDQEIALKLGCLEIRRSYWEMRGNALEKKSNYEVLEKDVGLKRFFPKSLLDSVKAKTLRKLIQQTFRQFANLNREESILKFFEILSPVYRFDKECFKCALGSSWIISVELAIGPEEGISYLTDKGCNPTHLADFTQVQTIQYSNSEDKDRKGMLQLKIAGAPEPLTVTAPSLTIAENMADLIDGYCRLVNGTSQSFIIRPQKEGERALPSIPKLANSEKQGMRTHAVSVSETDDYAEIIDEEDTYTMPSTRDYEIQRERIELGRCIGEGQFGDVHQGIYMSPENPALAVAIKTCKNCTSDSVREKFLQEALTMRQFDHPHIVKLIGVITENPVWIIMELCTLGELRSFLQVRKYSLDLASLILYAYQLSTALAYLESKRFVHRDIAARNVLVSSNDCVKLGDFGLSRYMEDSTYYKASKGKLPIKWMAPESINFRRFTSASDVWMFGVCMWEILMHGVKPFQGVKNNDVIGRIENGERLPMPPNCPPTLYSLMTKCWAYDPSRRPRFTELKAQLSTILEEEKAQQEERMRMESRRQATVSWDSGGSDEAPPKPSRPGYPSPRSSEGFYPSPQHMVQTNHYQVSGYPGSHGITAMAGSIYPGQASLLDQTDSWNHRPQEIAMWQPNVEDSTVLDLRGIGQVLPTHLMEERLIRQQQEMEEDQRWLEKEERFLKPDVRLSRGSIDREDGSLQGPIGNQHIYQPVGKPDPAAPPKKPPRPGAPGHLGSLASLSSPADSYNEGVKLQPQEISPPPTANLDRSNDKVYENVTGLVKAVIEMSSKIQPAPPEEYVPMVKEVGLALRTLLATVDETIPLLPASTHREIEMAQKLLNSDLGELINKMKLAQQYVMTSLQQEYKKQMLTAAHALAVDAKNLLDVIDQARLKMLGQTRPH
T1 sequence (P35916 25-1363): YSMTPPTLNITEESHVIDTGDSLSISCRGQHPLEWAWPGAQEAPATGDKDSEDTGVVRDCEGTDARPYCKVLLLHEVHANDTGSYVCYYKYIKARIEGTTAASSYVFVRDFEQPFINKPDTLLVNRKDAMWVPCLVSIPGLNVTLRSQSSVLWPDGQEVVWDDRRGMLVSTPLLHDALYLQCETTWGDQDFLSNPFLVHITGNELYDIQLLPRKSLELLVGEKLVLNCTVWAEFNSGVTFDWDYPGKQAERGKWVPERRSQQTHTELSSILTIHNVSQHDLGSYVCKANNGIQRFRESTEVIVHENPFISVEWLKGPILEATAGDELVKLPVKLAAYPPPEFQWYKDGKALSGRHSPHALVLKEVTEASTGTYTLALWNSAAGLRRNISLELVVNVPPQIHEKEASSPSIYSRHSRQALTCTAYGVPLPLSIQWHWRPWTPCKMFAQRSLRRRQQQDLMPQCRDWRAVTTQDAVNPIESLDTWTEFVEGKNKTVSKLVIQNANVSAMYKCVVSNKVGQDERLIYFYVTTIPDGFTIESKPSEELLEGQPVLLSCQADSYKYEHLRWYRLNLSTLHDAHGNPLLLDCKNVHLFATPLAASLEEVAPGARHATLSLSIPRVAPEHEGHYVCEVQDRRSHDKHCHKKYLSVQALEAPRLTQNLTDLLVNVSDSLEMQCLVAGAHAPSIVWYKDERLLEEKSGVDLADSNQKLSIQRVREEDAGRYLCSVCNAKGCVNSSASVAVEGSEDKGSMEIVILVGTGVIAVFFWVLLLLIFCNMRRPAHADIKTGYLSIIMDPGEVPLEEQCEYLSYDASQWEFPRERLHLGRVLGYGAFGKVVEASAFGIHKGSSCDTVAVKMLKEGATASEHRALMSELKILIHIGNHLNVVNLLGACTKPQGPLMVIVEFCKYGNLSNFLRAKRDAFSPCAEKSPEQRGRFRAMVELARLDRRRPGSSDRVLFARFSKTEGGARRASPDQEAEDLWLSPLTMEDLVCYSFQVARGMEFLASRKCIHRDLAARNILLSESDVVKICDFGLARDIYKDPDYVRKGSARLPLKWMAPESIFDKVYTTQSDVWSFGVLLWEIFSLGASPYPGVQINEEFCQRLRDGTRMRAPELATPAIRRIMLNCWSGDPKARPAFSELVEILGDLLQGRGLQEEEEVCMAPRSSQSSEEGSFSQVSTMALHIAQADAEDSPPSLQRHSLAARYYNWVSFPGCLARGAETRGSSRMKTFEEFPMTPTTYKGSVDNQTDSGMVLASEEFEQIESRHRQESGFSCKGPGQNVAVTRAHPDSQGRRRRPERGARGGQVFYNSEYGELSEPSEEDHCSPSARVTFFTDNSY

Take `NC(=O)Cc1cc(F)ccc1CCc1nc(Nc2ccc(C3CCNCC3)cc2)ncc1C(F)(F)F` [Compound 9, 2-(5-fluoro-2-(2-(2-((4-(piperidin-4-yl)phenyl)amino)-5-(trifluoromethyl)pyrimidin-4-yl)ethyl)phenyl)acetamide]: the IC50 (in general, the midpoint of a concentration-inhibition curve) at VEGFR3 turned out to be 379 nM; in experiment [1] it was 68 nM.

In the case of `NC(=O)Cc1ccccc1CCc1nc(Nc2ccc(C3CCNCC3)nc2)ncc1C(F)(F)F` [Compound 13, 2-(2-(2-(2-((6-(piperidin-4-yl)pyridin-3-yl)amino)-5-(trifluoromethyl)pyrimidin-4-yl)ethyl)phenyl)acetamide], the IC50 at VEGFR3 worked out at 1030 nM; in experiment [1] it was 67 nM.

Regarding `NC(=O)Cc1ccccc1CCc1nc(Nc2ccc(CNCCO)cc2)ncc1C(F)(F)F` [Compound 19, 2-(2-(2-(2-((4-(((2-hydroxyethyl)amino)methyl)phenyl)amino)-5-(trifluoromethyl)pyrimidin-4-yl)ethyl)phenyl)acetamide], the results for the IC50 (at P397Y-FAK; in experiment [1]) were 7 nM and 70 nM, respectively.

For the compound `Cc1ccc(CC(N)=O)c(CCc2nc(Nc3ccc(C4CCNCC4)cc3)ncc2C(F)(F)F)c1` [Compound 21, 2-(4-methyl-2-(2-(2-((4-(piperidin-4-yl)phenyl)amino)-5-(trifluoromethyl)pyrimidin-4-yl)ethyl)phenyl)acetamide], the IC50 at P397Y-FAK came out at 119 nM; in experiment [1] it was 44 nM.

On to `NC(=O)Cc1c(CCc2nc(Nc3ccc(C4CCNCC4)cc3)ncc2C(F)(F)F)cccc1C(F)(F)F` [Compound 22, 2-(2-(2-(2-((4-(piperidin-4-yl)phenyl)amino)-5-(trifluoromethyl)pyrimidin-4-yl)ethyl)-6-(trifluoromethyl)phenyl)acetamide], for which the IC50 on P397Y-FAK amounted to 944 nM; in experiment [1] it was 101 nM.

The record behind these values is patent publication US20150225377A1, “VEGFR3 INHIBITORS” (CANCER THERAPEUTICS CRC PTY LIMITED, priority 2012, published 2015).
